The values below come from patent publication US20240033238A1, “COMBINATION OF COMPOUNDS FOR USE IN THERAPY” (B&A ONCOMEDICAL, priority 2022, published 2024).

SMILES strings stand for the structures. pEC50: −log10 of the molar value.

The subject of data set [1] is glioblastoma. Particulars: rodent glioblastoma models; shifted from 20 days; cited from earlier work.
The subject of data set [2] is U87 cells. The data set can be described thus: scratch test (invasion of tumour cells). It is filed as cell-based, human. Particulars: U87, 0.1 μm; for reduction of invasion: day 5, compared to controls not treated; for anti-invasive action (persistence of a trench): day 8. The source says: To further investigate invasion of tumour cells, we performed a scratch test. This test enables to visualize the propagation and metastasis of tumour cells determined by their capacity to cross the trench. Therefore, U87 cells are cultivated and a scratch is made with a blade in order to estimate the strength and rapidity of invasion.

The subject of data set [3] is U87 cell lines. In words: cytotoxicity in GFP transfected U87 cells (cell number). In kind it is cell-based, human. As to conditions: for reduction of number of cells: U87, 0.1 μm; for reduction of cell number / cytotoxic effect (in words): U87, 10 μm; for cytotoxic effect (in words): bumetanide at day 3 and day 5. The method, then: The HEK cell line is a specific immortalised cell line widely used in cell biology and biotechnology research and the U87 cell line is a human glioblastoma cell line that is commonly used in brain cancer research.
The effects of bumetanide alone or in combination with mebendazole were investigated in U87 cell lines at 0.1, 1, and 10 μm. Each experiment was performed in triplicate (n=3). Cells were GFP transfected (green). Cytotoxicity is manifested by loss of GFP and presence of small round flat cells loosing GFP expression indicative of cell death (apoptosis).

The target of data set [4] is T1, NKCC1 (Homo sapiens, UniProt P55011).
T1 construct: endogenous in cells; host or cells: HEK293
T1 sequence (P55011 1-1212): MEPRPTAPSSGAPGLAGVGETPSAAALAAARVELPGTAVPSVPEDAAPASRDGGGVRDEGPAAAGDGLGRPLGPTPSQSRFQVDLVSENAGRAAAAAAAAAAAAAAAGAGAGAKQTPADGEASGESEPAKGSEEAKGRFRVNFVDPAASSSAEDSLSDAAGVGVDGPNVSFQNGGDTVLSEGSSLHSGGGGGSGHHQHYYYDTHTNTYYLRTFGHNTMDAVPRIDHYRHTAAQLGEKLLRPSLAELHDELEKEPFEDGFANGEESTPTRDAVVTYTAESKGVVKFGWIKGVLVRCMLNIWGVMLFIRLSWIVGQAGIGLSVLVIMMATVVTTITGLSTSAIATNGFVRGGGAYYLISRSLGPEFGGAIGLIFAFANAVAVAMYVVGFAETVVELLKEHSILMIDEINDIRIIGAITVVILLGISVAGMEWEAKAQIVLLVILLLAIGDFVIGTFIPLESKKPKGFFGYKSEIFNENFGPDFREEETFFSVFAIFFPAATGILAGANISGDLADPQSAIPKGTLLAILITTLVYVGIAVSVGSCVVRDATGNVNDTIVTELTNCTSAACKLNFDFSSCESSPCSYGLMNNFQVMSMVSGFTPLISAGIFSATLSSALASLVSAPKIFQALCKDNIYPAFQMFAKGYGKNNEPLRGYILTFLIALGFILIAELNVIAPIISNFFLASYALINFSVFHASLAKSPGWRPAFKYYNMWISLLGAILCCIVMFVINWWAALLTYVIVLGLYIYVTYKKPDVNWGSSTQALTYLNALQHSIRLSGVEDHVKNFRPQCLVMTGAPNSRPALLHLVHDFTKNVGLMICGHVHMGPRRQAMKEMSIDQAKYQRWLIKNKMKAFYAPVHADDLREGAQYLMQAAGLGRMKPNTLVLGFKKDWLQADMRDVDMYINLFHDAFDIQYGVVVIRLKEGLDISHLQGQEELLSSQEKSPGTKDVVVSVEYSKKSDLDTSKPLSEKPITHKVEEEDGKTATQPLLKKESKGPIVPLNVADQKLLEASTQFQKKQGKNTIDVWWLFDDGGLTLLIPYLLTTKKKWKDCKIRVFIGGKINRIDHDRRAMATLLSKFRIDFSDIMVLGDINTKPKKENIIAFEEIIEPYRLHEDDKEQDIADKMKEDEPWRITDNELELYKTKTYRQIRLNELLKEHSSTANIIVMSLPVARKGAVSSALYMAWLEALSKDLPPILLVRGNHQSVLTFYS
In words: dose response on NKCC1-mediated K+ influx (FIG. 1B). In kind it is cell-based. As to conditions: HEK293 cells, dose response curves.

Data set [5] has as its system U87 cells. In words: immunochemistry (Dapi, iodure propidium, Actin/GFP) viability of cells. It is filed as cell-based, human. As to conditions: U87, 1 μm; control: 3%. The source says: The labels used are Dapi (blue) iodure propidium (red) and Actin immunocytochemistry with GFP (green) in order to visualize the viability and non-viability of cells.
To better illustrate the effects of bumetanide and mebendazole, we used Dapi (blue) iodure propidium (red) and Actin immunocytochemistry with GFP (green) in order to visualize the viability and non-viability of cells.

Data set [6] concerns K^+ influx in HEK293 cells. The data set can be described thus: K+ influx in HEK293 cells (FIG. 1A). It is filed as cell-based, human. As to conditions: ouabain 100 uM.

Regarding `CCCSc1ccc2nc(NC(=O)OC)[nH]c2c1` [ABZ, albendazole], in data set [1], the mean survival is listed as 36 days.

As for `CCCCNc1cc(C(=O)O)cc(S(N)(=O)=O)c1Oc1ccccc1` [bumetanide], in data set [2], the reduction of invasion was 40% and the “anti-invasive action (persistence of a trench)” value was “neither applications of mebendazole or bumetanide separately produced an anti-invasive action”. For the same molecule, the “reduction of number of cells” value in data set [3] (day 3) was “not”. For the same molecule, the “reduction of number of cells” value in data set [3] (day 5) is “not”. Moreover, in data set [3] (day 8), the “reduction of cell number” value was 18%. In data set [3], the “cytotoxic effect (in words)” value was “strong cytotoxic action”. The pEC50 in data set [4] is 6.51. For the same molecule, the “dead cells / reduction of cell density” value in data set [5] is 3,2%. Also, the “inhibition of K+ influx” value in data set [6] amounted to 49%.

With `COC(=O)Nc1nc2ccc(C(=O)c3ccccc3)cc2[nH]1` [mebendazole, methyl N-[6-(benzoyl)-1H-benzimidazol-2-yl] carbamate], the reduction of invasion in data set [2] was 15%. In addition, the “anti-invasive action (persistence of a trench)” value in data set [2] is recorded as “neither applications of mebendazole or bumetanide separately produced an anti-invasive action”. Also, the figures for the “reduction of number of cells” value in data set [3] (day 3), in data set [3] (day 5) and in data set [3] (day 8) were 43%, 90% and 70%, respectively. In addition, the “reduction of cell number” value in data set [3] (day 1) worked out at 55%; in data set [3] (day 5), 89%; in data set [3] (day 8), 64%. The “cytotoxic effect (in words)” value in data set [3] was “very strong cytotoxic effect”. For the same molecule, the “EC50 on NKCC1-mediated K+ influx” value in data set [4] was “inefficacy”. For the same molecule, the “dead cells / reduction of cell density” value in data set [5] is 50%. Moreover, in data set [1], the mean survival is listed as 49 days. In addition, in data set [6], the “inhibition of K+ influx” value was “ineffective”.

`C[C@@H]1O[C@@H](O[C@H]2C[C@@H](O)[C@]3(CO)[C@H]4[C@H](O)C[C@]5(C)[C@@H](C6=CC(=O)OC6)CC[C@]5(O)[C@@H]4CC[C@]3(O)C2)[C@H](O)[C@H](O)[C@H]1O` [ouabain]: in data set [6] (Homo sapiens), 100 µM produced 44% inhibition.

As a reminder, the pEC50 is the EC50 on a negative log10 scale, so that one unit is a factor of ten. High values mean a low EC50, low ones a high EC50. For orientation: inhibition means the share of the control response that was lost under treatment. Read a low inhibition as a weak effect.
